Test results: patent publication US9242984B2, “Pyrazolyl derivatives as Syk inhibitors” (Merck Sharp & Dohme Corp., priority 2012, dated 2016)
Where two headings read alike, the source gives them in different places.

Target: T1, recombinant human Syk (GST-hSyk fusion protein) (Homo sapiens, UniProt P43405)
T1 construct: purchased Carna Biosciences 08-176
Experiment: Homogeneous Time-Resolved Fluorescence (HTRF) assay for the recombinant human Syk enzyme
Format: biochemical
Conditions: 10-dose titration, 25 μM ATP
Summary of the method: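 IC50 came from a four-parameter fit over ten doses, 10 μM to 0.508 nM, with HTRF read-out (Eu-anti-pTyr antibody, SA-APC, EDTA stop, 30 min). The enzyme, 5 pM GST-hSyk, met compound for 10 min, then phosphorylated 250 nM biotin-peptide with 25 μM ATP and 5 mM Mg for 45 min at room temperature, pH 7.5.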

[1] = IC50 class, read-out: rhSYK Activity

SMILES	IC50 [1] [nM]	IC50 (read-out: rhSYK IC50) [nM]
Cc1cc(Nc2cc(C(F)(F)F)ccn2)nc(-c2cnn(CC(C)(O)CC#N)c2)c1 (centres unmarked) [Example 20.4, 3-hydroxy-3-methyl-4-[4-(4-methyl-6-{[4-(trifluoromethyl)pyridin-2-yl]amino}pyridin-2-yl)-1H-pyrazol-1-yl]butanenitrile]	≤ 100	
Cc1cc(Nc2cc(C(F)F)ccn2)nc(-c2cnn(CC3CNC(=O)O3)c2)c1 (centres unmarked) [Example 3.81, 5-{[4-(6-{[4-(difluoromethyl)pyridin-2-yl]amino}-4-methylpyridin-2-yl)-1H-pyrazol-1-yl]methyl}-1,3-oxazolidin-2-one]	≤ 100	
Cc1cc(Nc2ncc(F)c(C(F)F)n2)cc(-c2cnn(CC3(O)CCC3)c2)c1 [Example 29.6, 1-{[4-(3-{[4-(difluoromethyl)-5-fluoropyrimidin-2-yl]amino}-5-methylphenyl)-1H-pyrazol-1-yl]methyl}cyclobutanol]	≤ 100	
Cc1cc(Nc2cc(C(F)F)ccn2)nc(-c2cnn(CC3CNC(=O)O3)c2)c1 (centres unmarked) [Example 3.83, 5-{[4-(6-{[4-(difluoromethyl)pyridin-2-yl]amino}-4-methylpyridin-2-yl)-1H-pyrazol-1-yl]methyl}-1,3-oxazolidin-2-one]	≤ 100	
Cc1ccnc(Nc2cccc(-c3cnn(C[C@](C)(O)CO)c3)c2)n1 [Example 2.95, (2S)-2-methyl-3-(4-{3-[(4-methylpyrimidin-2-yl)amino]phenyl}-1H-pyrazol-1-yl)propane-1,2-diol]	100 to 1000	
Cc1cc(Nc2nccc(C(F)(F)F)n2)cc(-c2cnn(CCC(N)=O)c2)c1 [Example 3.3]	≤ 100	
Cc1cc(Nc2nccc(C(F)F)n2)cc(-c2cnn(CC(C)(C)NC(=O)NC(C)(C)C)c2)c1 [Example 27.7, 1-tert-butyl-3-{2-[4-(3-{[4-(difluoromethyl)pyrimidin-2-yl]amino}-5-methylphenyl)-1H-pyrazol-1-yl]-1,1-dimethylethyl}urea]	≤ 100	
Cc1cc(Nc2ncccn2)cc(-c2cnn(C3CC(C(N)=O)C3)c2)c1 (single isomer, unassigned) [Example 31.1, 3-(4-(3-Methyl-5-(pyrimidin-2-ylamino)phenyl)-1H-pyrazol-1-yl)cyclobutanecarboxamide]	≤ 100	34.9
Cc1cc(Nc2nccc(C(F)F)n2)cc(-c2cnn(C3CCCC(O)C3O)c2)c1 (single isomer, unassigned) [Example 10.7, 3-[4-(3-{[4-(difluoromethyl)pyrimidin-2-yl]amino}-5-methylphenyl)-1H-pyrazol-1-yl]cyclohexane-1,2-diol]	≤ 100	0.7
Cc1cc(Nc2nccc(C(F)F)n2)cc(-c2cnn(C(C)C3CNC(=O)C3)c2)c1 (centres unmarked) [Example 2.69, 4-{1-[4-(3-{[4-(difluoromethyl)pyrimidin-2-yl]amino}-5-methylphenyl)-1H-pyrazol-1-yl]ethyl}pyrrolidin-2-one]	≤ 100	
Cc1cc(Nc2cc(C(F)F)ccn2)nc(-c2cnn(C(C)C3CNC(=O)C3)c2)c1 (centres unmarked) [Example 1.66, 4-{1-[4-(6-{[4-(difluoromethyl)pyridin-2-yl]amino}-4-methylpyridin-2-yl)-1H-pyrazol-1-yl]ethyl}pyrrolidin-2-one]	≤ 100	
COc1nc(Nc2cc(C)cc(-c3cnn(CC4CNC(=O)O4)c3)c2)ncc1Cl (centres unmarked) [Example 2.23, 5-[(4-{3-[(5-chloro-4-methoxypyrimidin-2-yl)amino]-5-methylphenyl}-1H-pyrazol-1-yl)methyl]-1,3-oxazolidin-2-one]	≤ 100	
COc1nc(Nc2cc(C)cc(-c3cnn(C[C@@H](O)C(=O)O)c3)c2)ncc1Cl [Example 11.15, (2R)-3-(4-{3-[(5-chloro-4-methoxy-pyrimidin-2-yl)amino]-5-methyl-phenyl}-1H-pyrazol-1-yl)-2-hydroxy-propanoic acid]	≤ 100	
Cc1cc(Nc2nccc(C(F)F)n2)cc(-c2cnn(C(C[C@@H](C)O)[C@H](C)O)c2)c1 (stereo in doubt) [Example 2.50, 3-[4-(3-{[4-(difluoromethyl)pyrimidin-2-yl]amino}-5-methylphenyl)-1H-pyrazol-1-yl]hexane-2,5-diol]	≤ 100	

More lines, now with the values ahead:

IC50 [1] [nM]	IC50 (read-out: rhSYK IC50) [nM]	SMILES
≤ 100		Cc1cc(Nc2nccc(C(F)(F)F)n2)cc(-c2cnn(CC(O)c3ccc(C(N)=O)cc3)c2)c1 (centres unmarked) [Example 8.12, 4-{1-hydroxy-2-[4-(3-methyl-5-{[4-(trifluoromethyl)-pyrimidin-2-yl]amino}-phenyl)-1H-pyrazol-1-yl]ethyl}benzamide]
≤ 100		Cc1cc(Nc2nccc(C(F)F)n2)cc(-c2cnn(CC(O)CN3CCCC3=O)c2)c1 (centres unmarked) [Example 5.33, 1-{3-[4-(3-{[4-(difluoromethyl)pyrimidin-2-yl]amino}-5-methylphenyl)-1H-pyrazol-1-yl]-2-hydroxypropyl}pyrrolidin-2-one]
≤ 100		Cc1cc(Nc2nccc(C(F)(F)F)n2)cc(-c2cnn(CC(C)(C)O)c2)c1 [Example 5.12, 2-methyl-1-[4-(3-methyl-5-{[4-(trifluorometh-yl)pyrimidin-2-yl]amino}-phenyl)-1H-pyrazol-1-yl]propan-2-ol]
≤ 100	27.4	COC(=O)[C@@H](N)Cn1cc(-c2cc(C)cc(Nc3nccc(C(F)(F)F)n3)c2)cn1 [Example 4.1, methyl 3-[4-(3-methyl-5-{[4-(trifluoromethyl)pyrimidin-2-yl]amino}phenyl)-1H-pyrazol-1-yl]-L-alaninate]
≤ 100		Cc1cc(Nc2nccc(C(F)(F)F)n2)cc(-c2cnn(C3CCC(C(=O)O)CC3)c2)c1 (centres unmarked) [Example 1.56, 4-[4-(3-methyl-5-{[4-(trifluoromethyl)pyrimidin-2-yl]amino}phenyl)-1H-pyrazol-1-yl]cyclohexanecarboxylic acid]
≤ 100		Cc1cc(Nc2nccc(C(F)F)n2)cc(-c2cnn(CC3OC(=O)NC3C)c2)c1 (single isomer, unassigned) [Example 23.14, 5-{[4-(3-{[4-(difluoromethyl)pyrimidin-2-yl]amino}-5-methylphenyl)-1H-pyrazol-1-yl]methyl}-4-methyl-1,3-oxazolidin-2-one]
≤ 100		Cc1cc(Nc2nccc(C(F)(F)F)n2)cc(-c2cnn(C)c2)c1 [Example 1.3, N-[3-methyl-5-(1-methyl-1H-pyrazol-4-yl)phenyl]-4-(trifluoromethyl)-pyrimidin-2-amine]
≤ 100	9	Cc1cc(Nc2nccc(C(F)(F)F)n2)cc(-c2cnn(C(C)(C)CC#N)c2)c1 [Example 9.1, 3-methyl-3-[4-(3-methyl-5-{[4-(trifluoromethyl)pyrimidin-2-yl]amino}phenyl)-1H-pyrazol-1-yl]butanenitrile]
≤ 100	1.6	Cc1cc(Nc2nccc(C(F)F)n2)cc(-c2cnn(CC(O)(CO)C(F)(F)F)c2)c1 (single isomer, unassigned) [Example 32.1, (S or R)-2-((4-(3-((4-(difluoromethyl)pyrimidin-2-yl)amino)-5-methylphenyl)-1H-pyrazol-1-yl)methyl)-3,3,3-trifluoropropane-1,2-diol]
≤ 100		Cc1cc(Nc2nccc(C(F)(F)F)n2)cc(-c2cnn(CC3(O)CCC(C(=O)O)C(C)(C)C3)c2)c1 (centres unmarked) [Example 12.6, 4-hydroxy-2,2-dimethyl-4-{[4-(3-methyl-5-{[4-(trifluoromethyl)pyrimidin-2-yl]amino}phenyl)-1H-pyrazol-1-yl]methyl}-cyclohexanecarboxylic acid]
≤ 100		Cc1cc(Nc2nccc(C(F)F)n2)cc(-c2cnn(C[C@H]3CNCCO3)c2)c1 [Example 2.84, 4-(difluoromethyl)-N-(3-methyl-5-{1-[(2R)-morpholin-2-ylmethyl]-1H-pyrazol-4-yl}phenyl)pyrimidin-2-amine]
≤ 100		Cc1cc(Nc2nccc(C(F)F)n2)cc(-c2cnn(CC(O)CC(C)O)c2)c1 (centres unmarked) [Example 5.29, 1,3,5-trideoxy-1-[4-(3-{[4-(difluoromethyl)pyrimidin-2-yl]amino}-5-methylphenyl)-1H-pyrazol-1-yl]pentitol]
100 to 1000		CCOC(=O)CCn1cc(-c2cccc(Nc3nccc(C(F)(F)F)n3)c2)cn1 [Example 2.2, ethyl 3-[4-(3-{[4-(trifluoromethyl)-pyrimidin-2-yl]-amino}phenyl)-1H-pyrazol-1-yl]-propanoate]
≤ 100		Cc1cc(Nc2nccc(C(F)(F)F)n2)cc(-c2cnn(C[C@@H](O)C(N)=O)c2)c1 [Example 7.3, (2R)-2-hydroxy-3-[4-(3-methyl-5-{[4-(trifluorometh-yl)pyrimidin-2-yl]amino}-phenyl)-1H-pyrazol-1-yl]propanamide]
≤ 100		Cc1cc(Nc2nccc([C@@H](C)F)n2)cc(-c2cnn(CC(C)(O)CO)c2)c1 (single isomer, unassigned) [Example 25.6]
≤ 100		Cc1cc(Nc2nccc(C(F)(F)F)n2)cc(-c2cnn(CC3(C)CNC(=O)O3)c2)c1 (centres unmarked) [Example 3.117, 5-methyl-5-{[4-(3-methyl-5-{[4-(trifluoromethyl)pyrimidin-2-yl]amino}phenyl)-1H-pyrazol-1-yl]methyl}-1,3-oxazolidin-2-one]
≤ 100		Cc1cc(Nc2nccc(C(F)(F)F)n2)cc(-c2cnn(C[C@H](O)CO)c2)c1 [Example 3.42, (2S)-3-[4-(3-methyl-5-{[4-(trifluoromethyl)pyrimidin-2-yl]amino}phenyl)-1H-pyrazol-1-yl]propane-1,2-diol]
≤ 100		Cc1cc(Nc2nccc(C(F)(F)F)n2)cc(-c2cnn(Cc3ccnnc3)c2)c1 [Example 3.32, N-{3-methyl-5-[1-(pyridazin-4-ylmethyl)-1H-pyrazol-4-yl]phenyl}-4-(trifluoromethyl)pyrimidin-2-amine]
≤ 100		Cc1cc(Nc2nccc(C(F)(F)F)n2)cc(-c2cnn(CCO)c2)c1 [Example 3.36, 2-[4-(3-methyl-5-{[4-(trifluoromethyl)-pyrimidin-2-yl]amino}-phenyl)-1H-pyrazol-1-yl]ethanol]
